Source: patent US7410974B2, “Halogenated Quinazolinyl nitrofurans as antibacterial agents” (Ulysses Pharmaceutical Products, Inc., priority 2003, dated 2008)
In brackets after ≈: the same amount, converted by molar mass. Read-outs that look alike come from different tables or passages of the source.

Key:
S. aureus ATCC 29213 = assay: MIC broth microdilution (NCCLS); format: cell-based, Staphylococcus aureus; details: Staphylococcus aureus, ATCC29213; S. aureus ATCC 29213; read-out: MIC
Experimental: (§1) Minimal Inhibitory Concentration (MIC) Determination. Bacteria (primary strain panel, TABLE 1). Susceptibility tests were performed following the recommendations from the National Committee for Clinical Standards (NCCLS). The MICs were determined by a broth microdilution technique using a final volume of 100 μl of cation-adjusted Mueller Hinton Broth (MHBCA) and a bacterial inoculum of 10^5-10^6 Colony Forming Units (CFU)/ml. The inocula were verified and precisely determined by applying 10-μl drops of 10-fold dilutions onto Triptic Soy Agar plates. The CFU were counted after an incubation of 24 h at 35° C. Any experiment showing an inoculum that was more or less than 10^5-10^6 CFU/ml was rejected. Control antibiotics and test compounds were prepared at a concentration equivalent to 2-fold the highest desired final concentration. Compounds were then diluted directly in the 96-well microtiter plates by serial 2-fold dilutions using a multichannel pipette. Microtiter plates were incubated during 24 h at 35° C. and growth was recorded by using a microtiterplate reader at 650 nm as well as by visual observation. The MIC was defined as the lowest concentration of compound yielding no visible growth. […] Fastidious bacteria. The medium used for Listeria monocytogenes, Neisseria meningitidis, and Campylobacter jejuni was MHBCA containing 2% laked horse blood. The medium used for Haemophilus influenzae and Branhamella (Moraxella) catarrhalis was HTM as recommended by the NCCLS. Cultures of these fastidious bacteria were incubated at 35° C. in a 5% CO2 atmosphere. […] The medium used for Bacteroides fragilis was Wilkins Chalgren broth and growth was allowed under an anaerobic atmosphere at 35° C. for 48 hours.

S. aureus MRSA COL = assay: MIC broth microdilution (NCCLS); format: cell-based, Staphylococcus aureus; details: S. aureus MRSA COL
Experimental: as §1, with “hours. […]” for “hours.”

[1] = system: S. epidermidis ATCC 12228; assay: MIC broth microdilution (NCCLS); format: cell-based, Staphylococcus epidermidis; details: Staphylococcus epidermidis, ATCC12228; S. epidermidis ATCC 12228; read-out: MIC
Experimental: as §1

[2] = system: S. saprophyticus ATCC 15305; assay: MIC broth microdilution (NCCLS); format: cell-based, Staphylococcus saprophyticus; details: Staphylococcus saprophyticus, ATCC15305; S. saprophyticus ATCC 15305; read-out: MIC
Experimental: as §1

E. faecalis ATCC 29212 = assay: MIC broth microdilution (NCCLS); format: cell-based, Enterococcus faecalis; details: Enterococcus faecalis, ATCC29212; E. faecalis ATCC 29212; read-out: MIC
Experimental: as §1

E. faecium ATCC 35667 = assay: MIC broth microdilution (NCCLS); format: cell-based, Enterococcus faecium; details: Enterococcus faecium, ATCC35667, E. faecium ATCC 35667; read-out: MIC
Experimental: as §1

H. influenzae ATCC 49247 = assay: MIC broth microdilution (NCCLS), fastidious bacteria; format: cell-based; details: Haemophilus influenzae, ATCC49247, HTM, 5% CO2
Experimental: as §1

H. influenzae ATCC 49766 = assay: as above; format: cell-based; details: Haemophilus influenzae, ATCC49766, HTM, 5% CO2
Experimental: as §1

[3] = system: L. monocytogenes ATCC 13932; assay: as above; format: cell-based; details: Listeria monocytogenes, ATCC13932, MHBCA with 2% laked horse blood, 5% CO2
Experimental: as §1

B. catarrhalis ATCC 8176 = assay: as above; format: cell-based, Branhamella (Moraxella) catarrhalis; details: Moraxella catarrhalis, ATCC8176, HTM, 5% CO2
Experimental: as §1

M. smegmatis ATCC 19420 = assay: as above; format: cell-based, Mycobacterium smegmatis; details: Mycolicibacterium smegmatis, ATCC19420, read after 48 hours
Experimental: as §1

B. fragilis ATCC 25285 = assay: MIC broth microdilution (NCCLS), anaerobic; format: cell-based; details: Bacteroides fragilis, ATCC25285; B. fragilis ATCC 25285; Wilkins Chalgren broth, anaerobic, 48 hours; read-out: MIC
Experimental: as §1

E. faecium VanA = assay: MIC broth microdilution, antibiotic resistant strain panel; format: cell-based; details: Enterococcus faecium; multi-resistant E. faecium VanA; read-out: MIC
Experimental: as §1
(§2) Finally, compounds were also tested against populations of various clinical strains (antibiotic resistant strain panel, TABLE 1).

MRSA strain Sa211c = assay: as above; format: cell-based, Staphylococcus aureus; details: Staphylococcus aureus; multi-resistant MRSA strain Sa211c; read-out: MIC
Experimental: as §1, §2

MRSA strain Sa212c = assay: as above; format: cell-based, Staphylococcus aureus; details: Staphylococcus aureus; multi-resistant MRSA strain Sa212c; read-out: MIC
Experimental: as §1, §2

MRSA strain Sa220c = assay: as above; format: cell-based, Staphylococcus aureus; details: Staphylococcus aureus; multi-resistant MRSA strain Sa220c; read-out: MIC
Experimental: as §1, §2

MRSA strain Sa224c = assay: as above; format: cell-based, Staphylococcus aureus; details: Staphylococcus aureus; multi-resistant MRSA strain Sa224c; read-out: MIC
Experimental: as §1, §2

MRSA strain Sa228c = assay: as above; format: cell-based, Staphylococcus aureus; details: Staphylococcus aureus; multi-resistant MRSA strain Sa228c; read-out: MIC
Experimental: as §1, §2

MRSA strain Sa234c = assay: as above; format: cell-based, Staphylococcus aureus; details: Staphylococcus aureus; multi-resistant MRSA strain Sa234c; read-out: MIC
Experimental: as §1, §2

MRSA strain Sa248c = assay: as above; format: cell-based, Staphylococcus aureus; details: Staphylococcus aureus; multi-resistant MRSA strain Sa248c; read-out: MIC
Experimental: as §1, §2

MRSA strain Sa249c = assay: as above; format: cell-based, Staphylococcus aureus; details: Staphylococcus aureus; multi-resistant MRSA strain Sa249c; read-out: MIC
Experimental: as §1, §2

MRSA strain Sa253c = assay: as above; format: cell-based, Staphylococcus aureus; details: Staphylococcus aureus
Experimental: as §1, §2

Solubility in water = format: physicochemical
Experimental: Solubility of Compounds V and XV. The extent of solubility of compounds was evaluated in water.

E. coli ATCC 25922 [4] = assay: MIC broth microdilution (NCCLS); format: cell-based, Escherichia coli
Experimental: as §1

E. coli ATCC 25922 [5] = assay: Minimal Bactericidal Concentration (MBC); format: cell-based; details: Escherichia coli, ATCC25922, 99.9% killing
Experimental: (§3) Minimal Bactericidal Concentration (MBC). After the microtiter plates were read for the determination of the MIC, a 10-μl sample of each clear well (at least 5 wells without visible growth) was applied onto TSA plates for viable counts determination.
(§4) Petri dishes were incubated at 35° C. for exactly 24 h and bacterial colonies were counted.

[6] = system: S. saprophyticus ATCC 15305; assay: Minimal Bactericidal Concentration (MBC); format: cell-based; details: Staphylococcus saprophyticus, ATCC15305; S. saprophyticus ATCC 15305; 99.9% killing; read-out: MBC
Experimental: as §3, §4

A. baumannii ATCC 19606 = assay: MIC broth microdilution (NCCLS); format: cell-based, Acinetobacter baumannii; details: Acinetobacter baumannii, ATCC19606, read-out: MIC
Experimental: as §1

[7] = system: Y. enterocolytica ATCC 23715; assay: MIC broth microdilution (NCCLS); format: cell-based, Yersinia enterocolytica; details: Yersinia, ATCC23715, read-out: MIC
Experimental: as §1

[8] = system: E. coli ATCC 35150 (O157:H7); assay: MIC broth microdilution, E. coli strains; format: cell-based; details: Escherichia coli, ATCC35150
Experimental: as §1, §2

E. coli Ec022c (EIEC) = assay: MIC broth microdilution, E. coli strains; format: cell-based; details: Escherichia coli, pathotype EIEC
Experimental: as §1, §2

E. coli Ec027c (EIEC) = assay: MIC broth microdilution, E. coli strains; format: cell-based; details: Escherichia coli, pathotype EIEC
Experimental: as §1, §2

E. coli Ec117c (EIEC) = assay: MIC broth microdilution, E. coli strains; format: cell-based; details: Escherichia coli, pathotype EIEC
Experimental: as §1, §2

E. coli Ec118c (EIEC) = assay: MIC broth microdilution, E. coli strains; format: cell-based; details: Escherichia coli, pathotype EIEC
Experimental: as §1, §2

E. coli Ec119c (EIEC) = assay: MIC broth microdilution, E. coli strains; format: cell-based; details: Escherichia coli, pathotype EIEC
Experimental: as §1, §2

[9] = system: E. coli d25-ALR-pen14 (O157:H7); assay: MIC broth microdilution, E. coli strains; format: cell-based; details: Escherichia coli
Experimental: as §1, §2

[10] = system: E. coli d4-OLR-pen10 (O157:H7); assay: MIC broth microdilution, E. coli strains; format: cell-based; details: Escherichia coli
Experimental: as §1, §2

[11] = Staphylococcus aureus, MRSA, read-out: MIC
[12] = Escherichia coli, ATCC25922, E. coli ATCC 25922 (Reference), read-out: MIC

Row | SMILES | MIC (S. aureus ATCC 29213) | MIC (S. aureus MRSA COL; [11]) | MIC [1] | MIC [2] | MIC (E. faecalis ATCC 29212) | MIC (E. faecium ATCC 35667) | MIC [3] | MIC (M. smegmatis ATCC 19420) | MIC (B. fragilis ATCC 25285) | MIC (MRSA strain Sa211c) | MIC (MRSA strain Sa212c) | MIC (MRSA strain Sa220c) | MIC (MRSA strain Sa224c) | MIC (MRSA strain Sa228c) | MIC (MRSA strain Sa234c) | MIC (MRSA strain Sa248c) | MIC (MRSA strain Sa249c) | MIC (E. coli ATCC 25922 [4]; [12]) | other results
1 | CN1CCN(c2cc3nc(C=Cc4ccc([N+](=O)[O-])o4)nc(Nc4ccc(O)cc4)c3cc2F)CC1 [Compound XV, 7-(4-methylpiperazino)-6-fluoro-2-[2-(5-nitro-2-furyl)vinyl]-4-(p-hydroxyanilino)-quinazoline] | 2 µg/mL (≈ 4.08 µM) | 0.5 µg/mL (≈ 1.02 µM) | 1 to 2 µg/mL (≈ 2.04 to 4.08 µM) | 2 µg/mL (≈ 4.08 µM) | 2 to 8 µg/mL (≈ 4.08 to 16.3 µM) | 8 µg/mL (≈ 16.3 µM) | 0.5 µg/mL (≈ 1.02 µM) | 0.25 µg/mL (≈ 0.51 µM) | 0.5 µg/mL (≈ 1.02 µM) | 2 µg/mL (≈ 4.08 µM) | 4 µg/mL (≈ 8.16 µM) | 0.25 µg/mL (≈ 0.51 µM) | 1 µg/mL (≈ 2.04 µM) | 2 µg/mL (≈ 4.08 µM) | 2 µg/mL (≈ 4.08 µM) | 0.5 µg/mL (≈ 1.02 µM) | 0.5 µg/mL (≈ 1.02 µM) | – | MIC (H. influenzae ATCC 49247): 2 µg/mL (≈ 4.08 µM); MIC (H. influenzae ATCC 49766): 2 µg/mL (≈ 4.08 µM); MIC (B. catarrhalis ATCC 8176): 0.5 µg/mL (≈ 1.02 µM); MIC (E. faecium VanA): 0.5 µg/mL (≈ 1.02 µM); MIC (MRSA strain Sa253c; multi-resistant MRSA strain Sa253c, read-out: MIC): 2 µg/mL (≈ 4.08 µM); solubility relative to Compound V (Solubility in water): 4 times; solubility (Solubility in water; read-out: solubility in water (no visible particles)): 1000 µg/mL (≈ 2040 µM)
2 | CCn1cc(C(=O)O)c(=O)c2cc(F)c(N3CCNCC3)cc21 [Norfloxacin] | 1 µg/mL (≈ 3.13 µM) | 0.5 to 1 µg/mL (≈ 1.57 to 3.13 µM) | 0.5 µg/mL (≈ 1.57 µM) | 2 µg/mL (≈ 6.26 µM) | 4 µg/mL (≈ 12.5 µM) | 16 µg/mL (≈ 50.1 µM) | 0.008 µg/mL (≈ 0.0251 µM) | 2 µg/mL (≈ 6.26 µM) | – | > 32 µg/mL | > 32 µg/mL | > 32 µg/mL | > 32 µg/mL | > 32 µg/mL | > 32 µg/mL | 32 µg/mL (≈ 100 µM) | 32 µg/mL (≈ 100 µM) | 0.03 µg/mL (≈ 0.0939 µM) | MIC (S. aureus MRSA COL): 1 µg/mL (≈ 3.13 µM); MIC (MRSA strain Sa253c; MRSA): > 128 µg/mL; MBC (E. coli ATCC 25922 [5]): 0.06 µg/mL (≈ 0.188 µM); MBC [6]: 4 µg/mL (≈ 12.5 µM)
3 | CN(C)[C@@H]1C(O)=C(C(N)=O)C(=O)[C@@]2(O)C(O)=C3C(=O)c4c(O)cccc4[C@@](C)(O)[C@H]3C[C@@H]12 [Tetracycline] | 0.5 to 1 µg/mL (≈ 1.13 to 2.25 µM) | 2 µg/mL (≈ 4.5 µM) | – | 1 µg/mL (≈ 2.25 µM) | 16 to 32 µg/mL (≈ 36 to 72 µM) | – | – | – | 0.25 µg/mL (≈ 0.563 µM) | – | – | – | – | – | – | – | – | 1 to 2 µg/mL (≈ 2.25 to 4.5 µM) | MIC (E. coli ATCC 25922 [4]; E. coli ATCC 25922 (Reference)): 2 µg/mL (≈ 4.5 µM); MIC (A. baumannii ATCC 19606): 16 µg/mL (≈ 36 µM); MIC [7]: > 32 µg/mL; MIC [8]: 2 µg/mL (≈ 4.5 µM); MIC (E. coli Ec022c (EIEC)): 2 µg/mL (≈ 4.5 µM); MIC (E. coli Ec027c (EIEC)): > 32 µg/mL; MIC (E. coli Ec117c (EIEC)): > 32 µg/mL; MIC (E. coli Ec118c (EIEC)): 4 µg/mL (≈ 9 µM); MIC (E. coli Ec119c (EIEC)): > 32 µg/mL; MIC [9]: > 32 µg/mL; MIC [10]: > 32 µg/mL
